The record followed here is the OligoGym collection.

Where “and” joins values, the source holds several entries; their conditions need not be identical. Identical values can stand only once. HELM strings list units from the 5' end as sugar, base in round brackets, then linkage (d deoxyribose, r ribose, m 2'-O-methyl, p phosphodiester). Strings are as the collection lists them, not checked against the first reports. ss, as = sense and antisense strand; [lna] = locked nucleic acid (LNA); [una] = unlocked nucleic acid; [hna] = hexitol nucleic acid; [s4r] = 4'-thioribose; [fl2r] = 2'-fluoro
Further: test system not given here.

The conditions of the series: siRNA.
Turning to “RNA1{r(G)p.r(U)p.r(A)p.r(U)p.r(G)p.r(A)p.r(C)p.r(C)p.r(G)p.r(A)p.r(C)p.r(U)p.r(A)p.r(C)p.r(G)p.r(C)p.r(G)p.r(U)p.r(A)p.r(T)p.r(T)}|RNA2{r(U)p.r(U)p.r(C)p.r(A)p.r(G)p.r(U)p.[una](G)p.r(U)p.r(G)p.r(A)p.r(U)p.r(G)p.r(A)p.r(C)p.r(A)p.r(C)p.r(U)p.r(U)p.r(G)p.r(T)p.r(T)}$$$RNA1{StrandType:ss}|RNA2{StrandType:as}$”, the target mRNA knockdown came to 86%.
With “RNA1{[s4r](A)p.[s4r](A)p.[s4r](A)p.[s4r](C)p.r(A)p.r(U)p.r(G)p.r(C)p.r(A)p.r(G)p.r(A)p.r(A)p.r(A)p.r(A)p.r(U)p.r(G)p.r(C)p.r(U)p.r(G)p.r(T)p.r(T)}|RNA2{[s4r](C)p.[s4r](A)p.r(G)p.r(C)p.r(A)p.r(U)p.r(U)p.r(U)p.r(U)p.r(C)p.r(U)p.r(G)p.r(C)p.r(A)p.r(U)p.r(G)p.r(U)p.[s4r](U)p.[s4r](U)p.r(T)p.r(T)}$$$RNA1{StrandType:ss}|RNA2{StrandType:as}$” the figure was 60.2%.
The value for “RNA1{[s4r](C)p.r(G)p.r(U)p.r(A)p.[s4r](C)p.r(G)p.[s4r](C)p.r(G)p.r(G)p.r(A)p.r(A)p.r(U)p.r(A)p.[s4r](C)p.r(U)p.r(U)p.[s4r](C)p.r(G)p.r(A)p.r(T)p.r(T)}|RNA2{r(U)p.r(C)p.r(G)p.r(A)p.r(A)p.r(G)p.r(U)p.r(A)p.r(U)p.r(U)p.r(C)p.r(C)p.r(G)p.r(C)p.r(G)p.r(U)p.r(A)p.r(C)p.r(G)p.r(T)p.r(T)}$$$RNA1{StrandType:ss}|RNA2{StrandType:as}$” was 93.6%; that for “RNA1{r(U)p.r(C)p.r(C)p.m(U)p.r(A)p.r(G)p.r(C)p.m(U)p.r(G)p.r(U)p.r(C)p.r(U)p.m(U)p.r(G)p.r(U)p.r(C)p.r(C)p.r(C)p.r(U)p.r(T)p.r(T)}|RNA2{r(A)p.r(G)p.r(G)p.r(G)p.r(A)p.m(C)p.r(A)p.r(A)p.r(G)p.r(A)p.m(C)p.r(A)p.r(G)p.r(C)p.m(U)p.r(A)p.r(G)p.r(G)p.r(A)p.r(T)p.r(T)}$$$RNA1{StrandType:ss}|RNA2{StrandType:as}$” was 68%; that for “RNA1{[hna](G)p.[hna](A)p.[hna](C)p.r(G)p.r(U)p.r(A)p.r(A)p.r(A)p.r(C)p.r(G)p.r(G)p.r(C)p.r(C)p.r(A)p.r(C)p.r(A)p.r(A)p.[hna](G)p.[hna](U)p.r(U)p.d(T)}|RNA2{r(A)p.r(C)p.[lna](T)p.r(U)p.r(G)p.[lna](T)p.r(G)p.r(G)p.r(C)p.r(C)p.r(G)p.r(U)p.r(U)p.[lna](T)p.r(A)p.r(C)p.r(G)p.[lna](T)p.r(C)p.[lna](G)p.[lna](C)}$$$RNA1{StrandType:ss}|RNA2{StrandType:as}$” was 5.4%.
The value for “RNA1{m(A)p.m(A)p.r(C)p.r(C)p.r(C)p.m(A)p.r(C)p.r(C)p.m(A)p.r(C)p.m(A)p.r(G)p.r(C)p.m(U)p.m(A)p.r(G)p.m(A)p.m(A)p.r(C)p.m(U)p.m(U)}|RNA2{r(A)p.r(A)p.r(G)p.r(U)p.r(U)p.r(C)p.r(U)p.r(A)p.r(G)p.r(C)p.r(U)p.r(G)p.r(U)p.r(G)p.r(G)p.r(U)p.r(G)p.r(G)p.r(G)p.r(U)p.r(U)}$$$RNA1{StrandType:ss}|RNA2{StrandType:as}$” was 51%.
With “RNA1{[s4r](A)p.[s4r](A)p.r(A)p.r(C)p.r(A)p.r(U)p.r(G)p.r(C)p.r(A)p.r(G)p.r(A)p.r(A)p.r(A)p.r(A)p.r(U)p.r(G)p.r(C)p.r(U)p.r(G)p.r(T)p.r(T)}|RNA2{r(C)p.r(A)p.r(G)p.r(C)p.r(A)p.r(U)p.r(U)p.r(U)p.r(U)p.r(C)p.r(U)p.r(G)p.r(C)p.r(A)p.r(U)p.r(G)p.r(U)p.[s4r](U)p.[s4r](U)p.r(T)p.r(T)}$$$RNA1{StrandType:ss}|RNA2{StrandType:as}$”, the target mRNA knockdown is 72.4%.
The value for “RNA1{r(G)p.r(A)p.r(C)p.r(G)p.r(U)p.r(A)p.r(A)p.r(A)p.r(C)p.r(G)p.r(G)p.r(C)p.r(C)p.r(A)p.r(C)p.r(A)p.r(A)p.r(G)p.r(U)p.r(U)p.r(C)}|RNA2{[fl2r](A)p.m(C)p.[fl2r](U)p.m(U)p.[fl2r](G)p.m(U)p.[fl2r](G)p.m(G)p.[fl2r](C)p.m(C)p.[fl2r](G)p.m(U)p.[fl2r](U)p.m(U)p.[fl2r](A)p.m(C)p.[fl2r](G)p.m(U)p.[fl2r](C)p.m(G)p.[fl2r](C)}$$$RNA1{StrandType:ss}|RNA2{StrandType:as}$” was 73.8%; that for “RNA1{r(A)p.r(U)p.r(C)p.r(U)p.r(G)p.r(A)p.r(A)p.r(G)p.r(A)p.r(A)p.r(G)p.r(G)p.r(A)p.r(G)p.r(A)p.r(A)p.r(A)p.r(A)p.r(A)p.[lna](T)p.[lna](T)}|RNA2{[lna](T)p.r(U)p.r(U)p.r(U)p.r(U)p.r(C)p.r(U)p.r(C)p.r(C)p.r(U)p.r(U)p.r(C)p.r(U)p.r(U)p.r(C)p.r(A)p.r(G)p.r(A)p.r(U)p.[lna](T)p.[lna](T)}$$$RNA1{StrandType:ss}|RNA2{StrandType:as}$” was 52% and 63%; that for “RNA1{r(A)p.r(U)p.r(C)p.r(G)p.r(A)p.r(C)p.r(C)p.[fl2r](U)p.r(G)p.r(A)p.r(A)p.r(G)p.r(G)p.r(A)p.r(G)p.[fl2r](U)p.r(A)p.r(C)p.r(G)p.r(T)p.r(T)}|RNA2{r(C)p.r(G)p.[fl2r](U)p.r(A)p.r(C)p.r(U)p.r(C)p.r(C)p.r(U)p.r(U)p.[fl2r](C)p.r(A)p.r(G)p.r(G)p.r(U)p.r(C)p.r(G)p.r(A)p.r(U)p.r(T)p.r(T)}$$$RNA1{StrandType:ss}|RNA2{StrandType:as}$” was 46%.
The value for “RNA1{r(G)p.r(A)p.r(A)p.r(G)p.r(A)p.r(G)p.r(C)p.r(C)p.m(U)p.r(A)p.m(C)p.r(A)p.m(C)p.r(A)p.r(A)p.r(C)p.r(C)p.r(C)p.r(U)p.r(T)p.r(T)}|RNA2{r(A)p.r(G)p.r(G)p.r(G)p.r(U)p.m(U)p.r(G)p.m(U)p.r(G)p.m(U)p.r(A)p.r(G)p.r(G)p.r(C)p.r(U)p.r(C)p.r(U)p.r(U)p.r(C)p.r(T)p.r(T)}$$$RNA1{StrandType:ss}|RNA2{StrandType:as}$” was 75%; that for “RNA1{r(G)p.r(G)p.r(A)p.r(C)p.r(A)p.r(U)p.r(U)p.r(C)p.r(A)p.r(G)p.r(A)p.r(A)p.r(C)p.r(A)p.r(A)p.r(G)p.r(A)p.r(A)p.r(A)p.[una](U)p.[una](U)}|RNA2{r(U)p.r(U)p.r(U)p.r(C)p.r(U)p.r(U)p.[una](G)p.r(U)p.r(U)p.r(C)p.r(U)p.r(G)p.r(A)p.r(A)p.r(U)p.r(G)p.r(U)p.r(C)p.r(C)p.[una](U)p.[una](U)}$$$RNA1{StrandType:ss}|RNA2{StrandType:as}$” was 78%; that for “RNA1{r(A)p.r(G)p.r(A)p.r(G)p.r(U)p.r(U)p.r(G)p.r(G)p.r(G)p.r(A)p.r(U)p.r(U)p.r(A)p.r(G)p.r(G)p.r(G)p.r(C)p.r(U)p.r(U)p.r(T)p.r(T)}|RNA2{m(A)p.r(A)p.m(G)p.r(C)p.m(C)p.r(C)p.m(U)p.r(A)p.m(A)p.r(U)p.m(C)p.r(C)p.m(C)p.r(A)p.m(A)p.r(C)p.m(U)p.r(C)p.m(U)p.r(T)p.r(T)}$$$RNA1{StrandType:ss}|RNA2{StrandType:as}$” was 45%.
The value for “RNA1{r(A)p.r(G)p.r(C)p.r(G)p.r(G)p.r(G)p.r(G)p.m(U)p.r(A)p.m(U)p.r(G)p.r(A)p.r(A)p.r(G)p.m(A)p.r(G)p.r(C)p.r(U)p.r(U)p.r(T)p.r(T)}|RNA2{r(A)p.r(A)p.r(G)p.r(C)p.r(U)p.r(C)p.r(U)p.r(U)p.m(C)p.r(A)p.m(U)p.r(A)p.r(C)p.r(C)p.r(C)p.r(C)p.r(G)p.r(C)p.r(U)p.r(T)p.r(T)}$$$RNA1{StrandType:ss}|RNA2{StrandType:as}$” was 85%.
